Data on four molecules can be found in patent publication US11078188B2, “Dihydroquinoxaline bromodomain recognition protein inhibitor, preparation method and use thereof” (SHANGHAI INSTITUTE OF MATERIA MEDICA, CHINESE ACADEMY OF …, priority 2017, dated 2021).

Data set [1] can be described thus: Metabolic stability in human liver microsomes. The data set is classed as in vitro ADME. The following applies: human liver microsomes 0.5 mg/ml, 1 μM compound, NADPH; for microsomal CLint at 1 μM: read-out: HLM Clint; for half-life at 1 μM: read-out: HLM t1/2. As to the method:
The system which was 150 μl of human liver microsomes (final concentration: 0.5 mg/ml) was used for metabolic stability incubation. The system contained reduced coenzyme II (NADPH) (final concentration: 1 mM) and 1 μM compound, positive control or negative control. The reaction was terminated with acetonitrile containing (imiprozine, batch number: 3221; tinidazole, given) at 0 min, 5 min, 10 min, and 30 min, respectively. The mixture was vortexed for 10 min, centrifuged at 15000 rpm for 10 min, and 50 μl of the supernatant was injected into a 96-well plate. The metabolic stability of the compound was calculated by measuring the relative reduction in the original medicament.
(§1) HLM Clint (μl/min/mg) refers to the clearance rate of compounds in human liver microsomes having a unit of μl/min/mg; mLM Clint (μl/min/mg) refers to the clearance rate of compounds in mouse liver microsomes having a unit of μl/min/mg; HLM t1/2 (min) refers to the half-life of the compound in human liver microsomes having a unit of minutes; mLM t1/2 (min) refers to the half-life of the compound in mouse liver microsomes having a unit of minutes. TDI means that the mechanism inhibition test of compounds on CYP enzyme evaluates whether the compound has time-dependent inhibition of the enzyme.

A short description of data set [2]: Metabolic stability in mouse liver microsomes. Format: in vitro ADME. The conditions noted are these: for microsomal CLint at 1 μM: read-out: mLM Clint.
The target in the next data set is CYP3A4 (Homo sapiens (Human), UniProt P08684). Briefly: Direct inhibition test (DI test), CYP 3A4. Format: in vitro ADME. The following applies: human liver microsomes 0.2 mg/ml, first of two values a/b (two 3A4 probes midazolam, testosterone; assignment not given), read-out: Direct inhibition rate (%) 3A4, first value. As to the method: (§2) The system which was 100 μl of human liver microsomes (final concentration: 0.2 mg/ml) was used for direct inhibition incubation. The system contained NADPH (final concentration: 1 mM), 10 μl compound, positive inhibitor cocktail (ketoconazole, 10 μl, quinidine 10 μl, sulfaphenazole 100 μl, naphthoflavone 10 μl, tranylcypromine 1000 μl), negative control 10 μl DMSO and mixed probe substrate (midazolam 10 μl, testosterone 100 μl, dextromethorphan 10 μl, diclofenac 20 μl, phenacetin 100 μl, mephenytoin 100 μl). The reaction was stopped after the system was incubated for 20 min. The relative activity of the enzyme was calculated by measuring the relative amount of production of the metabolite.
Chain of CYP3A4 (P08684 whole entry): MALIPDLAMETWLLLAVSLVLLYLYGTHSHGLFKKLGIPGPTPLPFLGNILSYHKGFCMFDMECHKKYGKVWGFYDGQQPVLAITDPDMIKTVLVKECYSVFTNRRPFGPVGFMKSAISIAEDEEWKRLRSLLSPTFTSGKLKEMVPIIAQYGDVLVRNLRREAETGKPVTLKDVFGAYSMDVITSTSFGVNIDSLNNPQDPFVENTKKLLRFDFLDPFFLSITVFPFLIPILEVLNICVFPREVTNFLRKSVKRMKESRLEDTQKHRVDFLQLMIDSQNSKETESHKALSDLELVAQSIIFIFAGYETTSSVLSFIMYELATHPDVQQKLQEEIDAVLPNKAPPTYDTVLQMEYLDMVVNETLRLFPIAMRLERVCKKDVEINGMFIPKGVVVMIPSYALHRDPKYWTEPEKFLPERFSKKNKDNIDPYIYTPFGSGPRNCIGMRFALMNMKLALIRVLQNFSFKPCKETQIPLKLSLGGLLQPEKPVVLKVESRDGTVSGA
On the technique in general: Microsomes from liver hold many membrane-bound enzymes, among them those of drug oxidation.

In the next data set the target is 3A4 (Homo sapiens (Human), UniProt P08684). The data set is described as follows: Direct inhibition test (DI test), CYP 3A4. Format: in vitro ADME. The conditions noted are these: human liver microsomes 0.2 mg/ml, 20 min; for Direct inhibition rate (%) 3A4, second value: second of two values a/b (two 3A4 probes midazolam, testosterone; assignment not given); for Direct inhibition rate (%) 3A4, first value: first of two values a/b (two 3A4 probes midazolam, testosterone; assignment not given). As to the method: as §2
Chain of 3A4 (P08684 whole entry): as above

The target in a further data set is CYP2C9 (Homo sapiens (Human), UniProt P11712). The data set is described as follows: Direct inhibition test (DI test), CYP 2C9. The conditions noted are these: human liver microsomes 0.2 mg/ml, read-out: Direct inhibition rate (%) 2C9. The data set is classed as in vitro ADME. As to the method:
as §2

The target in the next data set is CYP2C19 (Homo sapiens (Human), UniProt P33261). The data set is described as follows: Direct inhibition test (DI test), CYP 2C19. The conditions noted are these: human liver microsomes 0.2 mg/ml, read-out: Direct inhibition rate (%) 2C19. The data set is classed as in vitro ADME. As to the method:
as §2

The next data set deals with CYP2D6 (Homo sapiens (Human), UniProt P10635). Briefly: Direct inhibition test (DI test), CYP 2D6. The conditions noted are these: human liver microsomes 0.2 mg/ml, read-out: Direct inhibition rate (%) 2D6. Format: in vitro ADME. As to the method: as §2
Chain of CYP2D6 (P10635 whole entry): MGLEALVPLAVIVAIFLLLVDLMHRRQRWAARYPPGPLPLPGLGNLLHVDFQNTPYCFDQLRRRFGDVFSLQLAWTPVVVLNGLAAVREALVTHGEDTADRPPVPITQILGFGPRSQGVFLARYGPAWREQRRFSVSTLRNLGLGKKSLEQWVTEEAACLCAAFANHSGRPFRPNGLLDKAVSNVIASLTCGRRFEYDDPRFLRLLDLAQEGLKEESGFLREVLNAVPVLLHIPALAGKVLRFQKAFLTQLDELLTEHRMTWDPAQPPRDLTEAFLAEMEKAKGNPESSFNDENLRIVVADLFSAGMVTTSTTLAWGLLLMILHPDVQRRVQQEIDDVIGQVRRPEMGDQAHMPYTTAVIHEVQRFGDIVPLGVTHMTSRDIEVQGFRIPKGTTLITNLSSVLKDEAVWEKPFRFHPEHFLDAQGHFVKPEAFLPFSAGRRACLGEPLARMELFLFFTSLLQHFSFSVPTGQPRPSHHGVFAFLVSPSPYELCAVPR
In a further data set the test system is CYP enzyme. Briefly: Mechanistic inhibition test (TDI test). The data set is classed as in vitro ADME. The conditions noted are these: human liver microsomes 0.2 mg/ml; mechanism inhibition if kobs greater than 200. As to the method:
The system which was 200 μl of human liver microsomes (final concentration: 0.2 mg/ml) was used for mechanistic inhibition incubation. The system contained 10 μl compound, mixed positive inhibitor (Troleandomycin 10 μl, Paroxetine 10 μl, Tienilic acid 10 μM, Furafylline 10 μl) or 10 μl negative control PRO. After NADPH (final concentration: 1 mM) or PBS was added, the system was incubated for 0 min, 5 min, 10 min and 30 min, then NADPH (final concentration: 1 mM) and mixed probe substrate (Midazolam 5 μM, Testosterone 50 μl, Dextromethophan 5 μM, Diclofenac 10 μl, Phenacetin 5 0 μM, S-(+)-mephenytoin 50 μl) were added and incubated for 10 min. Then the reaction was stopped. The test for positive inhibitor CYP2C19 was carried out alone, the inhibitor S-(+)-fluoxetine was 100 μM. The enzyme activity was calculated by measuring the relative production amount of metabolite. kobs was calculated.
as §1

The next data set has as its target BRD4 (I) (Homo sapiens (Human), UniProt O60885). Briefly: Fluorescence anisotropy (FA) binding test on BRD4 (I). The conditions noted are these: BRD4 (I) 10 nM, fluorescent (+)-JQ1 substrate 5 nM, read-out: BRD4 (1) IC50. As to the method: The binding activity of the compound to BRD4 (I) was tested using a fluorescence anisotropy (FA) method. The principle of FA test is to calculate and analyze the fluorescence polarization values in the horizontal and vertical directions by detecting the change of molecular weight before and after the interaction of fluorescein-labeled small molecules with other molecules. If the equilibrium of the binding between the fluorescently labeled small molecule and macromolecule is established, it will move slowly when excited, and the measured fluorescence polarization value will increase. If the binding between the fluorescently labeled small molecule and the macromolecule is replaced by another ligand, its rotation or flipping speed in the free state will be faster, and the emitted light will be depolarized relative to the plane of the excitation light, and the measured polarized light value will decrease to calculate the fluorescence anisotropy of the sample.
Expression and purification of the BRD4(I) recognition domain: colonies of newly transformed plasmid DNA from E. coli BL21(DE3)-condon plus-RIL cells were cultivated in 50 mL of Terrific Broth medium containing 50 μg/mL kanamycin and 34 μg/mL chloramphenicol at 37° C. overnight (starting culture). The starting culture was then diluted 100-fold in 1 L of fresh TB medium and the cells were grown at 37° C. to an optical density of about 0.8 at OD600 and then the temperature was lowered to 16° C. When the system was equilibrated at 16° C., the optical density at OD600 was approximately 1.2, and protein expression was induced with 0.2 mmol of isopropyl-β-D-thiogalactopyranoside (IPTG) overnight at 16° C. Bacteria were harvested by centrifugation (4000×g, 20 minutes, 4° C.) and stored as a pellet at −80° C. The cells expressing His 6-tagged protein was resuspend in lysis buffer [50 mmol 4-hydroxyethylpiperazineethanesulfonic acid (HEPES), 25° C., pH 7.5, 500 mmol NaCl, 10 mmol imidazole, 5% glycerol and freshly added 0.5 mmol of tris(2-carboxyethyl)phosphine hydrochloride (TCEP) and 1 mmol of phenylmethanesulfonyl fluoride (PMSF)] and lysed at 4° C. using JN 3000PLUS high pressure homogenizer (JNBIO-Guangzhou, China). The lysate was clarified by centrifugation (12,000×g for 1 hour at 4° C.) and applied to a nickel-nitriloacetate agarose column. The column was washed once with 50 mL of wash buffer containing 30 mmol of imidazole. The protein was eluted using imidazole in an elution buffer in a stepwise elution (100-250 mmol imidazole in 50 mmol HEPES, 25° C., pH 7.5, 500 mmol NaCl, 5% glycerol). All fractions were collected and monitored by SDS-polyacrylamide gel electrophoresis (Bio-Rad Criterion TM Precast Gels, 4-12% Bis-Tris, 1.0 mm, from Bio-Rad, CA). After 1 mmol of dithiothreitol (DTT) was added, the eluted proteins were treated with tobacco […] virus (TEV) protease overnight at 4° C. to remove the His6 tag. The protein was concentrated and further purified by size exclusion chromatography on a Superdex 75 16/60 HiLoad gel filtration column. The samples were monitored by SDS-polyacrylamide gel electrophoresis and concentrated to 8-10 mg/mL with gel filtration buffer, 10 mmol Hepes pH 7.5, 500 mM NaCl, 1 mmol DTT, and used for protein binding assays and crystallization.
The fluorogenic substrate was (+)-JQ1 linked to a fluorescent molecule and the working concentration was 5 nM. BRD4 (I) protein had 10 nM of working concentration and the total reaction system was 40 μL. The buffer was 50 mM 4-hydroxyethylpiperazineethanesulfonic acid (HEPES) pH 7.4, 150 mM NaCl, 0.5 mM 3[(3-cholamidopropyl)dimethylammonio]propanesulfonate (CHAPS). […] The final concentration of DMSO was chosen to be 0.2%, taking into account the solubility of the compound and the effect of DMSO on the assay. All measurements were made under these conditions. […]
In general terms: In fluorescence polarisation assays a small probe gives low polarisation when free and higher when bound to something large.

Data set [3] relates to human myeloma cells MM.1S. The data set is described as follows: MM.1S cell viability, CCK-8 method. Format: cell-based. As to the method:
The MM.1S cell line was tested for cell viability. The test methods were as follows: human myeloma cells MM.1S were treated with compound for 72 h, and the proliferation inhibition effect and degree of the compound were detected by CCK-8 method.
Background: Tetrazolium assays rely on reduction of a dye to a coloured formazan, in cell work by metabolically active cells.

The next data set concerns DLBCL cells. The conditions noted are these: cited from earlier work.
In data set [4] the test system is MM.1S nude mice xenografts. The data set is described as follows: Growth of MM.1S nude mice xenografts in vivo. The conditions noted are these: 50 mg/kg qd/14 po. Set-up: species or system Balb/C nude mice. As to the method: Balb/C nude mice (6 weeks, female, Beijing Huafukang Biotechnology Co., Ltd.) were purchased, and the animals were conditioned for about one week before the test. MM.1S cells were cultured in vitro, and the cells in logarithmic growth phase were resuspended in serum-free RPMI1640 medium to adjust the cell concentration. The cell suspension was subcutaneously injected into forefoot armpit of the Balb/C nude mice with a syringe, and each animal was injected with 150 μL (8.0×10^6/mouse). When the average tumor volume grew to about ˜150 mm^3, the animals were divided into 4 groups containing solvent control group, 50 mg/kg OTX-015 group, and 20 and 50 mg/kg compound 6 groups by the randomized block method and each group contained six animals. […] During the administration period, the tumor diameter was measured twice a week, the body weight of the animals was weighed, the living state of the animals was observed, and abnormal conditions were recorded.
The formula for calculating tumor volume (TV): TV=½×a×b^2, where a and b represent length and width, respectively.
The relative tumor volume (RTV) was calculated based on the measured results, and the calculation formula was: RTV=Vt/V0. Wherein V0 was the measured tumor volume at the time of administration by cage (ie, d0), and Vt was the tumor volume at each measurement.
The relative tumor proliferation rate T/C (%) was calculated based on the measured results, and the calculation formula was as follows: T/C (%)=(TRTV/CRTV)×100%, TRTV: treatment group RTV; CRTV: negative control group RTV.

Chain of CYP2C19 (P33261 whole entry): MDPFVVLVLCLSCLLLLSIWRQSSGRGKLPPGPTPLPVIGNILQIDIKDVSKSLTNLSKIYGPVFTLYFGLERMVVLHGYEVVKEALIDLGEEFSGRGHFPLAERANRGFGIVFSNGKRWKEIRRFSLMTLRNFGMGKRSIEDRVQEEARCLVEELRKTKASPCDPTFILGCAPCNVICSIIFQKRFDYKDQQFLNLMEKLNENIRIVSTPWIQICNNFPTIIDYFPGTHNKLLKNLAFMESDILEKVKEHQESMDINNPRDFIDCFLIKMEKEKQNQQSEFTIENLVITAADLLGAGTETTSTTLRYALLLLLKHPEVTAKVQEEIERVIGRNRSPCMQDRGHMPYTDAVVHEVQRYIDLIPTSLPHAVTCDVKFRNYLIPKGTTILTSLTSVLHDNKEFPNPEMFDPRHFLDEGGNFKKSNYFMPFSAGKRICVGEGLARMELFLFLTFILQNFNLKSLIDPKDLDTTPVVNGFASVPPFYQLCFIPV
Chain of CYP2C9 (P11712 whole entry): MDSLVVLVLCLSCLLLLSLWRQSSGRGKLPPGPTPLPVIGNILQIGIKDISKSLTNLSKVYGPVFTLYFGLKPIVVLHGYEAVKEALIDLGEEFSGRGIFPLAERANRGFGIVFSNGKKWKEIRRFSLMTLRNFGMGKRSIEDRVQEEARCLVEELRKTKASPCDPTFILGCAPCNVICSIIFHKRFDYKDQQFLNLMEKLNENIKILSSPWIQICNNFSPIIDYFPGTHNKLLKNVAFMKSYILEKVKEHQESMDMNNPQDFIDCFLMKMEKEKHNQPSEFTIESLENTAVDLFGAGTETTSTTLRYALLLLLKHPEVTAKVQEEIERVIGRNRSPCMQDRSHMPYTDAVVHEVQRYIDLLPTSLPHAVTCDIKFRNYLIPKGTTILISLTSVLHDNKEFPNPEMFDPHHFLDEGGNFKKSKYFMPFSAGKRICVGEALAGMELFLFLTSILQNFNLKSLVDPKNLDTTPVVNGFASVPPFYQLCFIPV

`Cc1ccc(-n2nc(C(=O)N3CCN(C)CC3)cc2-c2ccc3c(c2)N(C2CCCC2)[C@H](C)C(=O)N3C)cc1` [Example 26]: the microsomal CLint at 1 μM in [1] was found to be 66 µL/min/mg; in data set [2], 52 µL/min/mg. The half-life at 1 μM in data set [1] was determined as 21 min; in [2] (read-out: MLM t1/2), 27 min. For the same molecule, the inhibition at 20 min at CYP3A4 is 35%; on CYP2C9, 39%; at CYP2C19, 34%; at CYP2D6 it was 4%. Besides, the “Direct inhibition rate (%) 3A4, second value” at 3A4 was 37%. In addition, in the data set on CYP enzyme, the TDI entry is “no”. The IC50 at BRD4 (I) is 5.1 nM.

For the molecule `Cc1ccc(-n2nc(C(=O)N3CCN(C)CC3)nc2-c2ccc3c(c2)N(C2CC2)C(C)C(=O)N3C)cc1` (stereo not shown) [Example 33], in data set [1], the “HLM Clint” value is 22 µL/min/mg and the “HLM t1/2” value was found to be 62 min. Moreover, in data set [2], the “MLM t1/2” value was 107 min and the “mLM Clint” value was 13 µL/min/mg. Besides, in [3] (72 h treatment, CCK-8), the IC50 worked out at 10.7 ± 2.59 nM. Besides, the “inhibitory activity against the MM.1S cell line (in words)” value in [3] (compared with positive (+)-JQ1) was “better inhibitory activity against the MM.1S cell line than the positive (+)-JQ1”. At 3A4, the “Direct inhibition rate (%) 3A4, first value” was found to be 7% and the “Direct inhibition rate (%) 3A4, second value” was found to be 12%. In addition, in the data set on CYP enzyme, the TDI entry is “no”. Moreover, the IC50 on BRD4 (I) worked out at 15.7 nM.

Consider `Cc1ccc(-n2nc(C(=O)N3C[C@@H](C)N[C@@H](C)C3)cc2-c2ccc3c(c2)N(C2CCCC2)[C@H](C)C(=O)N3C)cc1` [Example 27], for which the microsomal CLint at 1 μM in data set [1] was 55 µL/min/mg; in data set [2], 6 µL/min/mg. Moreover, the values for the half-life at 1 μM in [1] and in data set [2] (read-out: half-lives in mouse liver microsomes) were 25 min and 248 min, respectively. On 3A4, the “Direct inhibition rate (%) 3A4, first value” was determined as 24%. Moreover, the “Direct inhibition rate (%) 3A4, second value” at 3A4 stood at 47%. Also, the inhibition at 20 min on CYP2C9 was found to be 27%; on CYP2C19 it was 19%; at CYP2D6, 6%. Further, the TDI entry with CYP enzyme is given as “no”. The IC50 at BRD4 (I) was 4.9 nM.

On to `Cc1sc2c(c1C)C(c1ccc(Cl)cc1)=N[C@@H](CC(=O)Nc1ccc(O)cc1)c1nnc(C)n1-2` [OTX-015, reference compound], for which the IC50 in the data set with DLBCL cells was 192 nM. Besides, in data set [4], the “RTV (mean SD)” value came to 603.15 and the “T/C (%)” value is 49.90%. Further, in [4] (d0 (at start of administration)), the “TV (mm^3, mean) d0” value turned out to be 184.48 mm^3. For the same molecule, the “TV (mm^3, mean) d14” value in data set [4] (d14) was found to be 886.75 mm^3.

One may read the inhibition as the percentage by which the read-out fell short of the control. In general, IC50 refers to the concentration needed to halve the response being measured.
